≈ marks a conversion by molar mass, not a printed value. Like-named read-outs stand apart in the source and are kept apart here.
Experiments:
Mycoplasma gallisepticum [1] = test: Antibiotic activity, broth-dilution microtiter test (MIC); type: cell-based; details: Mycoplasmoides gallisepticum, M. gallisepticum
Protocol: (§1) The MIC's in Table III were determined by standard agar-dilution assays. The MIC's in Table IV were obtained using a conventional broth-dilution microtiter test.
(§2) Antibiotic Activity of DMT Derivatives^a

[2] = system: Pasteurella multocida 17E; test: as above; type: cell-based; details: P. multocida 17E, bovine isolate
Protocol: as §1, §2

[3] = system: Pasteurella multocida 22A; test: as above; type: cell-based; details: P. multocida 22A
Protocol: as §1, §2

Mycoplasma hyorhinis = test: as above; type: cell-based
Protocol: as §1, §2

[4] = system: Pasteurella hemolytica 23C; test: as above; type: cell-based; details: P. hemolytica 23C
Protocol: as §1, §2

Staphylococcus aureus = test: as above; type: cell-based; details: S. aureus
Protocol: as §1, §2

Streptococcus bovis 80 = test: as above; type: cell-based; details: S. bovis 80
Protocol: as §1, §2

[5] = system: Pasteurella multocida 40G; test: as above; type: cell-based; details: P. multocida 40G
Protocol: as §1, §2

[6] = system: Pasteurella hemolytica 41D; test: as above; type: cell-based; details: P. hemolytica 41D
Protocol: as §1, §2

[7] = system: Pasteurella multocida 60A; test: as above; type: cell-based; details: P. multocida 60A, avian isolate
Protocol: as §1, §2

[8] = system: Pasteurella hemolytica 22C; test: as above; type: cell-based
Protocol: as §1, §2

[9] = system: Pasteurella multocida 68C; test: as above; type: cell-based; details: P. multocida 68C
Protocol: as §1, §2

Mycoplasma synoviae = test: as above; type: cell-based; details: Mycoplasmopsis synoviae, M. synoviae
Protocol: as §1, §2

[10] = system: Streptococcus pyogenes C203; test: ED50 in mice experimentally infected with S. pyogenes C203; type: in vivo; details: doses given 1 and 4 hours postinfection
Protocol: The C-23 modified derivatives of DMT of this invention have shown in vivo antimicrobial activity against experimentally-induced infections in laboratory animals. When two doses of test compound were administered to mice experimentally infected with S. pyogenes C203, the activity observed was measured as an ED50 value [effective dose in mg/kg to protect 50% of the test animals: see Warren Wick, et al., J. Bacteriol. 81, 233-235 (1961)].
^a mg/kg × 2; doses given 1 and 4 hours postinfection

[11] = system: Staphylococcus epidermidis EPI2; test: Antibiotic activity, standard agar-dilution assay (MIC); type: cell-based; details: S. epidermidis EPI2
Protocol: as §1
(§3) Antibiotic Activity of C-23 Modified Derivatives of DMT^a

[12] = system: Staphylococcus aureus X1.1; test: as above; type: cell-based; details: S. aureus X1.1
Protocol: as §1, §3

[13] = system: Staphylococcus aureus V41; test: as above; type: cell-based
Protocol: as §1, §3

Streptococcus Group 9960 = test: as above; type: cell-based; details: GROUP9960
Protocol: as §1, §3

[14] = system: Haemophilus influenzae R52; test: as above; type: cell-based; details: H. influenzae R52, ampicillin-resistant strain
Protocol: as §1, §3

[15] = system: Staphylococcus aureus S13E; test: as above; type: cell-based
Protocol: as §1, §3

[16] = system: Streptococcus Group D X66; test: as above; type: cell-based
Protocol: as §1, §3

[17] = system: Haemophilus influenzae Holt; test: as above; type: cell-based; details: H. influenzae Holt, ampicillin-sensitive strain
Protocol: as §1, §3

[18] = system: Streptococcus pneumoniae Park I; test: as above; type: cell-based; details: S. pneumoniae Park I
Protocol: as §1, §3

[19] = system: Staphylococcus epidermidis EPI1; test: as above; type: cell-based; details: S. epidermidis EPI1
Protocol: as §1, §3

[20] = system: Streptococcus pyogenes C203; test: as above; type: cell-based; details: S. pyogenes C203
Protocol: as §1, §3

[21] = system: Staphylococcus aureus X400; test: as above; type: cell-based
Protocol: as §1, §3

Mycoplasma gallisepticum [22] = test: Antimycoplasmal activity of DMT derivatives in chicks; type: in vivo; details: for Number with Antibodies/Number Tested: antibodies to M. gallisepticum
Protocol: In these tests infections were induced in chicks by injecting 0.2 ml. of a broth culture of M. gallisepticum into the abdominal air sac of two- to three-day-old chicks. The compounds were administered subcutaneously at a dose of 60 mg/kg once only on the day of infection or, at the same level, two times on the day of infection and two times on the first day post-infection. Twenty-one days post-infection, the chicks were weighed, a blood sample was taken, and the chicks were sacrificed. The presence or absence of air-sac lesions was recorded.

[23] = broth-dilution microtiter, M. hyorhinis, read-out: MIC
[24] = broth-dilution microtiter, P. hemolytica 22C, read-out: MIC
[25] = agar dilution, S. aureus V41, penicillin-resistant strain, read-out: MIC
[26] = agar dilution, Streptococcus Group D X66, read-out: MIC
[27] = agar dilution, S. aureus X400, methicillin-resistant strain, read-out: MIC
[28] = subcutaneous 60 mg/kg × 1, 21 days post-infection
[29] = subcutaneous 60 mg/kg × 4, 21 days post-infection

Structure (SMILES) | MIC (Mycoplasma gallisepticum [1]) [µg/mL] | MIC [2] [µg/mL] | MIC [3] [µg/mL] | MIC [4] [µg/mL] | MIC (Staphylococcus aureus) [µg/mL] | MIC (Streptococcus bovis 80) [µg/mL] | MIC [5] [µg/mL] | MIC [6] [µg/mL] | MIC [7] [µg/mL] | MIC [9] [µg/mL] | MIC (Mycoplasma synoviae) [µg/mL] | ED50 ([10]; C203, oral) [mg/kg] | ED50 ([10]; C203, sc, subcutaneous) [mg/kg] | MIC [11] [µg/mL] | MIC [12] [µg/mL] | MIC (Streptococcus Group 9960) [µg/mL] | MIC [15] [µg/mL] | MIC [17] [µg/mL] | MIC [18] [µg/mL] | MIC [19] [µg/mL] | further results
CCC1OC(=O)CC(O)C(C)C(OC2OC(C)C(OC3CC(C)(O)C(O)C(C)O3)C(N(C)C)C2O)C(CC=O)CC(C)C(=O)C=CC(C)=CC1CN (centres unmarked) [Compound 2, 23-Deoxy-23-amino-DMT] | 1.56 (≈ 2.11 µM) | 6.25 (≈ 8.44 µM) | 12.5 (≈ 16.9 µM) | 12.5 (≈ 16.9 µM) | 6.25 (≈ 8.44 µM) | 1.56 (≈ 2.11 µM) | 12.5 (≈ 16.9 µM) | 12.5 (≈ 16.9 µM) | 12.5 (≈ 16.9 µM) | 12.5 (≈ 16.9 µM) | 0.78 (≈ 1.05 µM) | > 100 | < 1.5 | 8 (≈ 10.8 µM) | 2 (≈ 2.7 µM) | 8 (≈ 10.8 µM) | 4 (≈ 5.4 µM) | 16 (≈ 21.6 µM) | 0.5 (≈ 0.675 µM) | 4 (≈ 5.4 µM) | MIC (Mycoplasma hyorhinis; [23]): 25 µg/mL (≈ 33.7 µM); MIC [8, 24]: 25 µg/mL (≈ 33.7 µM); MIC [13, 25]: 8 µg/mL (≈ 10.8 µM); MIC [14]: 16 µg/mL (≈ 21.6 µM); MIC [16, 26]: 8 µg/mL (≈ 10.8 µM); MIC [20]: 1 µg/mL (≈ 1.35 µM); MIC [21, 27]: 8 µg/mL (≈ 10.8 µM)
CCC1OC(=O)CC(O)C(C)C(OC2OC(C)C(OC3CC(C)(O)C(O)C(C)O3)C(N(C)C)C2O)C(CC=O)CC(C)C(=O)C=CC(C)=CC1CNC(=O)Cc1ccccc1 (centres unmarked) [Compound 3, 23-Deoxy-23-(phenylacetyl)amino-DMT] | 0.09 (≈ 0.105 µM) | 12.5 (≈ 14.6 µM) | 50 (≈ 58.2 µM) | 25 (≈ 29.1 µM) | 1.56 (≈ 1.82 µM) | 0.19 (≈ 0.221 µM) | 25 (≈ 29.1 µM) | 25 (≈ 29.1 µM) | 25 (≈ 29.1 µM) | 25 (≈ 29.1 µM) | 0.39 (≈ 0.454 µM) | > 100 | 3.8 | 1 (≈ 1.16 µM) | 0.5 (≈ 0.582 µM) | 0.5 (≈ 0.582 µM) | 0.5 (≈ 0.582 µM) | 8 (≈ 9.31 µM) | 0.25 (≈ 0.291 µM) | 0.5 (≈ 0.582 µM) | MIC (Mycoplasma hyorhinis; [23]): 1.56 µg/mL (≈ 1.82 µM); MIC [8, 24]: 50 µg/mL (≈ 58.2 µM); Number with Antibodies/Number Tested (Mycoplasma gallisepticum [22]; [28]): 8/9; Number with Antibodies/Number Tested (Mycoplasma gallisepticum [22]; [29]): 3/10; Mortality (Mycoplasma gallisepticum [22]; [28]): 1/10; Number with Air-Sac Lesions/Number Treated (Mycoplasma gallisepticum [22]; [28]): 8/10; Mortality (Mycoplasma gallisepticum [22]; [29]): 0/10; Number with Air-Sac Lesions/Number Treated (Mycoplasma gallisepticum [22]; [29]): 0/10; MIC ([13]; V41): 1 µg/mL (≈ 1.16 µM); MIC [14]: 8 µg/mL (≈ 9.31 µM); MIC [16, 26]: 0.5 µg/mL (≈ 0.582 µM); MIC [20]: 0.25 µg/mL (≈ 0.291 µM); MIC ([21]; X400): 1 µg/mL (≈ 1.16 µM)
CCC1OC(=O)CC(O)C(C)C(OC2OC(C)C(OC3CC(C)(O)C(O)C(C)O3)C(N(C)C)C2O)C(CC=O)CC(C)C(=O)C=CC(C)=CC1CN=[N+]=[N-] (centres unmarked) [Compound 1, 23-Deoxy-23-Azido-DMT] | 0.19 (≈ 0.248 µM) | 6.25 (≈ 8.15 µM) | 12.5 (≈ 16.3 µM) | 25 (≈ 32.6 µM) | 1.56 (≈ 2.03 µM) | 0.39 (≈ 0.509 µM) | 6.25 (≈ 8.15 µM) | 25 (≈ 32.6 µM) | 6.25 (≈ 8.15 µM) | 6.25 (≈ 8.15 µM) | 0.78 (≈ 1.02 µM) | 68 | 10.5 | 0.25 (≈ 0.326 µM) | 0.25 (≈ 0.326 µM) | 0.25 (≈ 0.326 µM) | 0.25 (≈ 0.326 µM) | 8 (≈ 10.4 µM) | 0.06 (≈ 0.0782 µM) | 0.25 (≈ 0.326 µM) | MIC (Mycoplasma hyorhinis): > 50 µg/mL; MIC ([8]; 22C): 25 µg/mL (≈ 32.6 µM); Number with Antibodies/Number Tested (Mycoplasma gallisepticum [22]; [28]): 5/10; Number with Antibodies/Number Tested (Mycoplasma gallisepticum [22]; [29]): 0/10; Mortality (Mycoplasma gallisepticum [22]; [28]): 0/10; Number with Air-Sac Lesions/Number Treated (Mycoplasma gallisepticum [22]; [28]): 3/10; Mortality (Mycoplasma gallisepticum [22]; [29]): 0/10; Number with Air-Sac Lesions/Number Treated (Mycoplasma gallisepticum [22]; [29]): 0/10; MIC [13, 25]: 0.25 µg/mL (≈ 0.326 µM); MIC [14]: 8 µg/mL (≈ 10.4 µM); MIC [16]: 0.5 µg/mL (≈ 0.652 µM); MIC [20]: 0.125 µg/mL (≈ 0.163 µM); MIC ([21]; X400): 0.5 µg/mL (≈ 0.652 µM)
CCC1OC(=O)CC(O)C(C)C(OC2OC(C)C(OC3CC(C)(O)C(O)C(C)O3)C(N(C)C)C2O)C(CC=O)CC(C)C(=O)C=CC(C)=CC1CSc1ccccc1 (centres unmarked) [Compound 4, 23-Deoxy-23-(phenyl)thio-DMT] | ≤ 0.05 | 6.25 (≈ 7.49 µM) | 12.5 (≈ 15 µM) | 25 (≈ 30 µM) | 0.39 (≈ 0.468 µM) | 0.19 (≈ 0.228 µM) | 6.25 (≈ 7.49 µM) | 12.5 (≈ 15 µM) | 6.25 (≈ 7.49 µM) | 12.5 (≈ 15 µM) | 0.19 (≈ 0.228 µM) | 71 | < 25 | 0.5 (≈ 0.599 µM) | 0.5 (≈ 0.599 µM) | 0.125 (≈ 0.15 µM) | 0.5 (≈ 0.599 µM) | 4 (≈ 4.8 µM) | 0.03 (≈ 0.036 µM) | 0.5 (≈ 0.599 µM) | MIC (Mycoplasma hyorhinis; [23]): 0.78 µg/mL (≈ 0.935 µM); MIC [8, 24]: 25 µg/mL (≈ 30 µM); Number with Antibodies/Number Tested (Mycoplasma gallisepticum [22]; [28]): 8/10; Number with Antibodies/Number Tested (Mycoplasma gallisepticum [22]; [29]): 7/10; Mortality (Mycoplasma gallisepticum [22]; [28]): 0/10; Number with Air-Sac Lesions/Number Treated (Mycoplasma gallisepticum [22]; [28]): 7/10; Mortality (Mycoplasma gallisepticum [22]; [29]): 0/10; Number with Air-Sac Lesions/Number Treated (Mycoplasma gallisepticum [22]; [29]): 3/10; MIC [13, 25]: 0.25 µg/mL (≈ 0.3 µM); MIC [16, 26]: 0.25 µg/mL (≈ 0.3 µM); MIC [20]: 0.125 µg/mL (≈ 0.15 µM); MIC [21, 27]: 0.5 µg/mL (≈ 0.599 µM)

From US4452784A, “C-23-Modified derivatives of DMT” (Eli Lilly and Company, priority 1982, dated 1984)
